{
  "source": "patent US7358237B2",
  "about": "“Inducible nitric oxide synthase binds, S-nitrosylates, and activates cyclooxygenase-2” (The Johns Hopkins University, priority 2005, dated 2008)",
  "molecules": {"B1": {"name": "1-483: myc-tagged fragment of COX2 comprising amino acids 1-483, which does not bind iNOS (protein)", "chain": "ANPCCSHPCQNRGVCMSVGFDQYKCDCTRTGFYGENCSTPEFLTRIKLFLKPTPNTVHYILTHFKGFWNVVNNIPFLRNAIMSYVLTSRSHLIDSPPTYNADYGYKSWEAFSNLSYYTRALPPVPDDCPTPLGVKGKKQLPDSNEIVEKLLLRRKFIPDPQGSNMMFAFFAQHFTHQFFKTDHKRGPAFTNGLGHGVDLNHIYGETLARQRKLRLFKDGKMKYQIIDGEMYPPTVKDTQAEMIYPPQVPEHLRFAVGQEVFGLVPGLMMYATIWLREHNRVCDVLKQEHPEWGDEQLFQTSRLILIGETIKIVIEDYVQHLSGYHFKLKFDPELLFNKQFQYQNRIAAEFNTLYHWHPLLPDTFQIHDQKYNYQQFIYNNSILLEHGITQFVESFTRQIAGRVAGGRNVPPAVQKVSQASIDQSRQMKYQSFNEYRKRFMLKPYESFEELTGEKEMSAELEALYGD"}, "B2": {"name": "484-604: dominant-negative myc-tagged fragment of COX2, amino acids 484-604, which binds iNOS (protein)", "chain": "IDAVELYPALLVEKPRPDAIFGETMVEVGAPFSLKGLMGNVICSPAYWKPSTFGGEVGFQIINTASIQSLICNNVKGCPFTSFSVPDPELIKTVTINASSSRSGLDDINPTVLLKERSTEL"}},
  "key": {"COX2 [1]": {"tested_on": "COX2", "test": "S-nitrosylation of COX2 in RAW264.7 cells treated with LPS/IFNγ (biotin switch and fluorometric detection)", "format": "cell-based, murine", "conditions": "1400W 100 μM, fragment transfected", "protocol": "(§1) S-nitrosylation assay. Cells were homogenized by 26G needle in HEN ([…] Hepes-NaOH pH 7.7, 1 mM EDTA, 0.1 mM Neocuproine) buffer and then centrifuged at 1000 g for 10 min at 4° C. Cells lysates (240 μg) was added 4 vol of blocking buffer (9 vol of HEN buffer plus 1 vol 25% SDS, adjusted to 20 mM MMTS with a 2 M stock prepared in dimethylformamide (DMF)) at 50° C. for 20 min with frequent vortexing. The MMTS was then removed by desalting three times with the MicroBioSpin6 column (Bio-Rad, Hercules, Calif.) pre-equilibrated in HEN buffer. To the eluate was added biotin-HPDP prepared fresh as a 4 mM stock in DMSO from a 50 mM stock suspension in DMF. Sodium ascorbate was added to a final concentration of 1 mM. After incubation for 1 h at 25° C., biotinylated proteins were precipitated by streptavidin-agarose beads. The streptavidin-agarose was then pelleted and washed 5 times using HENS buffer. The biotinylated proteins were eluted by SDS-PAGE sample buffer and subjected to Western-blot analysis.\nFluorometric detection of S-nitrosothiols. The methods were modified according to Cook et al.(2) RAW264.7 cells were treated with LPS/IFNγ for overnight and COX2 was immunoprecipitated by donkey anti-rat COX2 antibodies. After that the samples were reacted with 100 μM 2,3-diaminonaphthalene (DAN) in the presence of 100 μM of HgCl2 and incubated in darkness for 30 min at room temperature. The generated fluorescent compound 2,3-napththyltrazole (NAT) was then measured at an excitation wavelength of 375 nm and an emission wavelength of 450 nm."}, "iNOS and COX2 binding": {"molecular_target": "T1, iNOS and COX2 binding (Mus musculus, UniProt P29477+Q05769)", "T1 construct": "endogenous in cells; host or cells: RAW264.7 murine macrophages induced with LPS/IFNγ", "test": "Co-immunoprecipitation of iNOS and COX2 in LPS/IFNγ-induced RAW264.7 cells", "format": "cell-based, murine"}, "RAW264.7 cells [2]": {"tested_on": "RAW264.7 cells", "test": "PGE2 formation in RAW264.7 cells in response to LPS/IFNγ (PGE2 ELISA)", "format": "cell-based, murine", "conditions": "for PGE2 formation in response to LPS/IFNγ: 1400W various concentrations overnight, L-NAME 500 μM, D-NAME 500 μM", "protocol": "Measurement of PGE2. Cells were washed with worm PBS (×2) and incubated in the phenol free Dulbecco's modified Eagle's medium supplemented with 20 μM arachidonic acid and 3% albumin for 20 min. Media was collected and PGE2 production was measured with a PGE2 ELISA kit from Assay Design (Ann Arbor, Mich.) according to the manufacturer's instructions."}, "COX2 [3]": {"molecular_target": "T2, COX2 (Homo sapiens, UniProt P35354)", "T2 construct": "myc; expressed in transfected cells; host or cells: HEK293T", "T2 sequence (P35354 18-604)": "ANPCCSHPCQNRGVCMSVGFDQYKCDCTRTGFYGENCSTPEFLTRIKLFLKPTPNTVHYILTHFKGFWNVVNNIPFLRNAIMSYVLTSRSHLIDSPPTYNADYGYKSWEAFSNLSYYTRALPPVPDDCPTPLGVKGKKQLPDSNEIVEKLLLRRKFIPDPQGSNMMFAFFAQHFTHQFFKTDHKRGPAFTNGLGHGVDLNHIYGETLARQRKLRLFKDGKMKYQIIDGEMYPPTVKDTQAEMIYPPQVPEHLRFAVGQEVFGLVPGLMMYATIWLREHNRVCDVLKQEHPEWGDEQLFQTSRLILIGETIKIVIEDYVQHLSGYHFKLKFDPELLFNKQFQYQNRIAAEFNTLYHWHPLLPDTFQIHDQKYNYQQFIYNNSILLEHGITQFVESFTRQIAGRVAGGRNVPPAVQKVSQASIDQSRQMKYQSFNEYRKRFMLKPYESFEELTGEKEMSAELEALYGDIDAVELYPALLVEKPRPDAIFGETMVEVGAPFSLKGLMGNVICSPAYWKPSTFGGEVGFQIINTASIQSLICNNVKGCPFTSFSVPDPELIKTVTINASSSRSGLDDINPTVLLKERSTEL", "test": "S-nitrosylation of COX2 (biotin switch assay) in HEK293T cells transfected with COX2-myc", "format": "cell-based", "conditions": "for S-nitrosylation of COX2 by NO donors and H2O2: HEK293T cells transfected with COX2-myc, biotin switch, GSNO 100 μM, SNP 100 μM, Spermine-NO 100 μM, DETA-NO 500 μM", "text": "Plasmid Constructions. Full length human cyclooxygenase2-encoding gene (gene bank sequence NM_000963) was purchased from ATCC in pCMV•SPORT6 vector. The sequence was amplified by PCR using primers harboring Sal1/Not1 restriction sites and cloned into the pCMV-Myc vector (Clontech, Palo Alto, Calif.). The murine inducible nitric oxide synthase (accession number NM_010927) cloned into the pcDNA3.1+vector (Invitrogen, Carlsbad, Calif.).\nas §1"}, "COX2 [4]": {"molecular_target": "T2, COX2", "test": "COX2 enzyme activity in cell lysate of COX2-myc transfected HEK293T cells", "format": "biochemical", "protocol": "COX2 enzymatic assay. […] COX2 enzymatic activity was measured with a COX assay kit (Cayman Biochemical Inc, Ann Arbor, Mich.) according to the manufacturer's instructions.\nTo determine whether S-nitrosylation of COX2 alters enzyme activity, we examined COX2 enzyme activity in HEK293T cells transfected with COX2-myc."}, "RAW264.7 cells [5]": {"tested_on": "RAW264.7 cells", "test": "Confocal immunofluorescence of endogenous PGE2 in RAW264.7 cells transfected with COX2-myc fragments", "format": "cell-based, murine", "conditions": "RAW264.7 cells activated by LPS/IFNγ", "protocol": "Immunohistochemistry. RAW264.7 cells were transfected with deletion constructs of COX2. Cells were fixed in 4% paraformaldehyde in PBS for 5 min, permeablized in 0.1% Triton X-100 for 10 s, and then rinsed twice in PBS. Coverslips were then blocked in 10% goat serum at room temperature for 1 h and incubated with PGE2 (Cayman Biochemical Inc, Ann Arbor, Mich.) and myc antibodies for 24 hr at 4° C. Rhodamine or fluorescein-conjugated secondary antibodies (Jackson Immunochemicals, West Grove, Pa.) were then added at 10 μg/ml for 1 hr at room temperature as indicated. Coverslips were mounted in ProLong (Molecular Probes, Eugene, Oreg.). Confocal microscopy, in which the immunofluorescent staining is superimposed on phase contrast images, employed a Noran OZ (Noran Instruments, Middleton, Wis.) confocal laser-scanning system, fitted to an Olympus IX-50 fluorescence microscope."}},
  "data": [
    {"molecule": "CC(=N)NCc1cccc(CN)c1", "note": "[1400W]", "values": [
      {"measurement": "S-nitrosylation of COX2", "setting": "COX2 [1]", "value": "prevented"},
      {"measurement": "Co-precipitation of iNOS and COX2", "setting": "iNOS and COX2 binding; RAW264.7 cells induced by LPS/IFNγ, inhibitor 100 μM, immunoprecipitation with anti-iNOS or anti-COX2 antibodies", "value": "unaffected"},
      {"measurement": "PGE2 formation in response to LPS/IFNγ", "setting": "RAW264.7 cells [2]; RAW264.7 cells", "value": "inhibited"}
    ]},
    {"molecule": "COC(=O)[C@H](N)CCCN=C(N)N[N+](=O)[O-]", "note": "[D-NAME]", "values": [
      {"measurement": "PGE2 formation in response to LPS/IFNγ", "setting": "RAW264.7 cells [2]; RAW264.7 cells", "value": "not"}
    ]},
    {"molecule": "NCCN(CCN)/[N+]([O-])=N/O", "note": "[DETA-NONOate]", "values": [
      {"measurement": "S-nitrosylation of COX2 by NO donors and H2O2", "setting": "COX2 [3]", "value": "elicit S-nitrosylation"}
    ]},
    {"molecule": "N[C@@H](CCC(=O)N[C@@H](CSN=O)C(=O)NCC(=O)O)C(=O)O", "note": "[GSNO, nitrosoglutathione]", "values": [
      {"measurement": "S-nitrosylation of COX2 by NO donors and H2O2", "setting": "COX2 [3]", "value": "elicit S-nitrosylation"}
    ]},
    {"molecule": "OO", "note": "[H2O2]", "values": [
      {"measurement": "S-nitrosylation of COX2 by NO donors and H2O2", "setting": "COX2 [3]", "value": "does not elicit S-nitrosylation"}
    ]},
    {"molecule": "COC(=O)[C@@H](N)CCCNC(=N)N[N+](=O)[O-]", "note": "[L-NAME, nitro-argininemethylester]", "values": [
      {"measurement": "PGE2 formation in response to LPS/IFNγ", "setting": "RAW264.7 cells [2]; RAW264.7 cells", "value": "inhibition of PGE2 formation"}
    ]},
    {"molecule": "N=C(N)NCCC[C@H](N)C(=O)O", "note": "[L-arginine]", "values": [
      {"measurement": "Effects of L-NAME on PGE2 formation", "setting": "RAW264.7 cells [2]; RAW264.7 cells, LPS/IFNγ, L-NAME 500 μM + L-Arg 1 mM", "value": "reversed"}
    ]},
    {"molecule": "O=C1O[C@H]([C@@H](O)CO)C(O)=C1O", "note": "[ascorbic acid]", "values": [
      {"measurement": "Increase of COX2 activity by SNP", "setting": "COX2 [4]; SNP 200 μM plus ascorbate 500 μM", "value": "prevents the increase"},
      {"measurement": "COX2 activity in preparations not treated by SNP", "setting": "COX2 [4]; ascorbate 500 μM, no SNP", "value": "fails to affect"},
      {"measurement": "S-nitrosylation of COX2-myc in the presence of SNP", "setting": "COX2 [3]; SNP 200 μM, ASC 500 μM", "value": "reversed"}
    ]},
    {"molecule": "NCCCNCCCCN(CCCN)/[N+]([O-])=N/O", "note": "[spermine-NO]", "values": [
      {"measurement": "S-nitrosylation of COX2 by NO donors and H2O2", "setting": "COX2 [3]", "value": "elicit S-nitrosylation"}
    ]},
    {"molecule": "hemoglobin: sequesters freely diffusible NO", "values": [
      {"measurement": "S-nitrosylation of COX2", "setting": "COX2 [1]", "value": "fails to alter"}
    ]},
    {"molecule": "B1", "values": [
      {"measurement": "PGE2 expression level in transfected cell compared to non-transfected cell (immunofluorescent staining)", "setting": "RAW264.7 cells [5]", "value": "does not show a reduction"},
      {"measurement": "Influence on PGE2 formation", "setting": "RAW264.7 cells [2]; fragment transfected into RAW264.7 cells, LPS/IFNγ", "value": "fails to influence"}
    ]},
    {"molecule": "B2", "values": [
      {"measurement": "S-nitrosylation of COX2", "setting": "COX2 [1]", "value": "decreases"},
      {"measurement": "Co-precipitation of iNOS and COX2", "setting": "iNOS and COX2 binding; fragment transfected into RAW264.7 cells, LPS/IFNγ, immunoprecipitation with anti-iNOS", "value": "abolishes"},
      {"measurement": "PGE2 expression level in transfected cell compared to non-transfected cell (immunofluorescent staining)", "setting": "RAW264.7 cells [5]", "value": "reduction"},
      {"measurement": "Reduction of PGE2 formation", "setting": "RAW264.7 cells [2]; dominant-negative fragment transfected into RAW264.7 cells, LPS/IFNγ", "value": "more than 50%"}
    ]}
  ]
}
